Measurements from US11008332B2, “Pharmaceutical composition for preventing or treating aging-related diseases containing decursin derivative as active ingredient” (PRG S&TECH INC., priority 2017, dated 2021).
“Also recorded” adds a separate entry of the source.

How the values were obtained:
[1] = Stability in monoolein-based solution on heating and sonication (LC-MS); format: physicochemical; conditions: heating at 80° C. and sonication, FIG. 3B
Plasma stability, human = format: in vitro ADME
Water solubility = format: physicochemical
Plasma protein = Plasma protein binding, rat; format: in vitro ADME
Procedure: (§7) In vitro ADME studies (plasma protein binding, CYP inhibition, microsomal stability, plasma stability and hERG inhibition) were performed by New drug development center though standard protocols.

CYP2C19 = CYP2C19 (Homo sapiens, UniProt P33261); assay: CYP inhibition CYP2C19; format: in vitro ADME
Sequence of CYP2C19 (P33261 whole entry): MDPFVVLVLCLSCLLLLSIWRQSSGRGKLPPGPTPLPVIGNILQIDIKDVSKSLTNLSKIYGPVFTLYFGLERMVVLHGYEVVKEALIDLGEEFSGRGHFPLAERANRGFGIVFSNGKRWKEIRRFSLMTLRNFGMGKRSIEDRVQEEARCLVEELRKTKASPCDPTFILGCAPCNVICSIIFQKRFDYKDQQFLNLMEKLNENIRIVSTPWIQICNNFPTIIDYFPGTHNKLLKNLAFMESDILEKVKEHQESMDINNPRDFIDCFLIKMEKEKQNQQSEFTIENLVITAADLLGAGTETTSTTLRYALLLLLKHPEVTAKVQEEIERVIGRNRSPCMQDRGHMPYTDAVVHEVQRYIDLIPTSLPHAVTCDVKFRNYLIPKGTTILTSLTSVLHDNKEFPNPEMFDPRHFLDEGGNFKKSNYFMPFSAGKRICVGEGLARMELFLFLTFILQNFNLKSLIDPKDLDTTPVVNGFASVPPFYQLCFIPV
Procedure: as §7

[2] = Chemical pharmacokinetic (PK) analysis, blood/plasma concentration by LC-MS/MS; format: in vivo; conditions: FIG. 2A
Procedure: For PK analysis, 5 mg/kg of JH4 in 10% DMSO, 5% Tween […] solution was intravenously injected and 10 mg/kg of JH4 in 10% NMP and 90% PEG400 solution was per orally delivered. At the setting time-points, blood concentration of JH4 was determined by LC-MS/MS analysis and the PK analysis for other chemicals was also tested by the similar protocol.

Plasma stability, rat = format: in vitro ADME
[3] = tested on: collagen 1A expression in normal fibroblast; assay: Collagen 1A expression in normal fibroblasts 9N and N46 (Western blot); format: cell-based, human; conditions: normal fibroblast 9N and N46, 2 or 5 μM, 24 hours, FIG. 5B
Procedure: (§1) Human keratinocyte HaCaT cells and normal fibroblast 9N (GM 00038, person) and N46 (AG13299, person) were treated with 2 or 5 μM SLC-D011 and incubated for 24 hours and then the amount of collagen 1A expression was confirmed in HaCaT cells and fibroblasts was confirmed.

[4] = Liver microsomal stability, human; format: in vitro ADME
Procedure: as §7

CYP2D6 = CYP2D6 (Homo sapiens, UniProt P10635); assay: CYP inhibition CYP2D6; format: in vitro ADME
Sequence of CYP2D6 (P10635 whole entry): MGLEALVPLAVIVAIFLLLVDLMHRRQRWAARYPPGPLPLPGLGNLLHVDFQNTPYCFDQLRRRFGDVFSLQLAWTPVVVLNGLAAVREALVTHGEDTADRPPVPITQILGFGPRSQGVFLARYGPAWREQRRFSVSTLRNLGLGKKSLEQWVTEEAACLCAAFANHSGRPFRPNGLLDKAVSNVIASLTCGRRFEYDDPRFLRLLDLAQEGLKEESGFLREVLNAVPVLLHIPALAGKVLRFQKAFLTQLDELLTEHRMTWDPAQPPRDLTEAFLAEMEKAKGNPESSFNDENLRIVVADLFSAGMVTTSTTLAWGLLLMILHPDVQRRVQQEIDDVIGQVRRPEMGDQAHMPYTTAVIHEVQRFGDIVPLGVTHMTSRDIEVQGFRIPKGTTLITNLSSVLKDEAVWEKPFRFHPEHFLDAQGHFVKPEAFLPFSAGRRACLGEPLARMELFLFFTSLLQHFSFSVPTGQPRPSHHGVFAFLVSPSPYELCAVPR
Procedure: as §7

WS cells = assay: Immunofluorescence staining of Werner syndrome (WS) patient cells (nuclear morphology, proliferation, H3K9me3); format: cell-based, Human
Procedure: (§2) Human fibroblast cells from HGPS patients (AG03198, person; AG03199; person), WS patients (AG06300, person; AG03141, person; AG00780, person) and controls (GM 00038, person) were obtained from the Coriell Cell Repositories (Camden, N.J., USA) and were maintained in EMEM, containing 15% FBS, 2 mM glutamine or HEMEM with 26 mM HEPES without antibiotics.
(§3) Cells were seeded on a cover glass and transfected with the indicated vectors.
(§4) After fixing with 100% methanol or 1% paraformaldehyde (PFA) for 1 h at 4° C., cells were incubated with blocking buffer (PBS+anti-human-Ab; 1:400) for 1 h.
(§5) After washing with PBS twice, cells were incubated with anti-Lamin A/C, Progerin or H3K9Me3 in blocking buffer (1:200) overnight and sequentially with anti-goat Ab-FITC or anti-rabbit Ab-rhodamin in blocking buffer (1:500) for 7 h and mounted, and nucleus was stained with DAPI. Thereafter Immunofluorescence signal was detected by fluorescence microscopy (Zeiss and Logos).
(§6) For counting nuclear deformed cell, obtained immunofluorescence images were used. Nuclear membrane showing abnormalities, dependent on Lamin A staining, were counted from randomly selected field. Counted cells were calculated percentage.
To measure the cell proliferation, DAPI stained cells were counted from immunofluorescence images.

[5] = Liver microsomal stability, rat; format: in vitro ADME
[6] = tested on: progerin expression in progerin-transfected 293 cells; assay: Progerin expression analysis in progerin-transfected 293 cells (Western blot); format: cell-based; conditions: 24 hours, FIG. 1D
Procedure: HEK293 cell line, obtained from ATCC, were maintained in liquid medium (DMEM) containing 10% FBS and 1% antibiotics at 37° C.
Whole-cell lysates were prepared in RIPA.
15 μg of cell extracts were separated by SDS-PAGE and transferred onto a PVDF membrane.
The membrane was incubated for 1 h to overnight at 4° C. with primary antibody, followed by reaction with a secondary antibody at room temperature for 1 h.
Peroxidase activity was detected by chemiluminescence with ECL kit (Intron, Seoul, Korea) as recommended by its manufacturer.

Lmna^wt/G609G mice = assay: Life span and morphology of Lmna^wt/G609G mice; format: in vivo, mouse
HGPS cells = assay: Immunofluorescence staining of HGPS cells (nuclear morphology, progerin, H3K9me3); format: cell-based, Human
Procedure: as §2, §3, §4, §5, §6

[7] = tested on: collagen 1A expression in HaCaT cells; assay: Collagen 1A expression in HaCaT cells (Western blot); format: cell-based, human; conditions: 2 or 5 μM, 24 hours, FIG. 5A
Procedure: as §1

[8] = Liver microsomal stability, mouse; format: in vitro ADME
CYP2C9 = CYP2C9 (Homo sapiens, UniProt P11712); assay: CYP inhibition CYP2C9; format: in vitro ADME
Sequence of CYP2C9 (P11712 whole entry): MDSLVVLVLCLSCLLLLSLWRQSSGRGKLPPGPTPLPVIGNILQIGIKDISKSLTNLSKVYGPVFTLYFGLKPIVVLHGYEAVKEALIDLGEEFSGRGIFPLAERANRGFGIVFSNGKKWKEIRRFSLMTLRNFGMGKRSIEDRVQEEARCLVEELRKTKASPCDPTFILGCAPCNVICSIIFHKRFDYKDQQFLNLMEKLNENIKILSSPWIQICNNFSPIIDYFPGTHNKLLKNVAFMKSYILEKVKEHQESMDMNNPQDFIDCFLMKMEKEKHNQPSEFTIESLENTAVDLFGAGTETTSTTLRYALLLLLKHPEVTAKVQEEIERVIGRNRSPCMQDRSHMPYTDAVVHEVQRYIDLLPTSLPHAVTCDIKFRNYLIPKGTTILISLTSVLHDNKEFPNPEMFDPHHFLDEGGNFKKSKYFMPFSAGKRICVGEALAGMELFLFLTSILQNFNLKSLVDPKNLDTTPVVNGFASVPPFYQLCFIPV
Procedure: as §7

hERG ion channel = hERG ion channel (Homo sapiens, UniProt Q12809); assay: hERG inhibition (in vitro ADME); conditions: in vitro ADME analysis, FIG. 2B
Sequence of hERG ion channel (Q12809 whole entry): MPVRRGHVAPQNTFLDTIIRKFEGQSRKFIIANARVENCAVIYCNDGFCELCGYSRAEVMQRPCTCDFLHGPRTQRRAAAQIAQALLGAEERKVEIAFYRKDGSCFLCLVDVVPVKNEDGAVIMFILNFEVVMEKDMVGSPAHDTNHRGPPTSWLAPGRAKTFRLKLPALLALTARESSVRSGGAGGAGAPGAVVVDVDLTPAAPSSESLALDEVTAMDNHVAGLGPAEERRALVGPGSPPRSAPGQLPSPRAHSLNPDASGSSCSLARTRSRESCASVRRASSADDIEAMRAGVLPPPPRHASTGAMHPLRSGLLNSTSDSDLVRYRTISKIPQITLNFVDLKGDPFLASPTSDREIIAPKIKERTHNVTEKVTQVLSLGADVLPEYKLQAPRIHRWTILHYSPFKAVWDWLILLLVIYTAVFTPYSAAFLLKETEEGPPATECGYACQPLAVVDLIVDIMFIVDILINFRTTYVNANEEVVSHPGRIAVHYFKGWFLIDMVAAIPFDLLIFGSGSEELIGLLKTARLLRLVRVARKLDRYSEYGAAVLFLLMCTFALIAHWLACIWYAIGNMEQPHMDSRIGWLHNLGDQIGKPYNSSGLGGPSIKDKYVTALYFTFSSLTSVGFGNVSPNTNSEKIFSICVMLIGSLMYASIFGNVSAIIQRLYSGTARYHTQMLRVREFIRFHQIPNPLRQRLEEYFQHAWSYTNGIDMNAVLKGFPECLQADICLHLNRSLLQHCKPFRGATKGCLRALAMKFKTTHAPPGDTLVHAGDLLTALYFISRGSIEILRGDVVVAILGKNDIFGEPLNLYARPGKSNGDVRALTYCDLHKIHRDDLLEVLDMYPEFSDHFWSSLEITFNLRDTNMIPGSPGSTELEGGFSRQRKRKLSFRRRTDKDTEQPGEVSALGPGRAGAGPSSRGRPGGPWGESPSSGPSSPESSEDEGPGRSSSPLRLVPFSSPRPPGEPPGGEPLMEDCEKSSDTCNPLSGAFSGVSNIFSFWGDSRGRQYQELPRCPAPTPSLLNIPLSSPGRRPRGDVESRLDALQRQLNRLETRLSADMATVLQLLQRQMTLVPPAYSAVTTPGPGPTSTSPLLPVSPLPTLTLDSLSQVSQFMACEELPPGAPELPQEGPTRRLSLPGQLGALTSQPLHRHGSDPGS

CYP1A2 = molecular target: T1, CYP1A2 (Homo sapiens, UniProt P05177); assay: CYP inhibition CYP1A2; format: in vitro ADME
T1 sequence (P05177 1-516): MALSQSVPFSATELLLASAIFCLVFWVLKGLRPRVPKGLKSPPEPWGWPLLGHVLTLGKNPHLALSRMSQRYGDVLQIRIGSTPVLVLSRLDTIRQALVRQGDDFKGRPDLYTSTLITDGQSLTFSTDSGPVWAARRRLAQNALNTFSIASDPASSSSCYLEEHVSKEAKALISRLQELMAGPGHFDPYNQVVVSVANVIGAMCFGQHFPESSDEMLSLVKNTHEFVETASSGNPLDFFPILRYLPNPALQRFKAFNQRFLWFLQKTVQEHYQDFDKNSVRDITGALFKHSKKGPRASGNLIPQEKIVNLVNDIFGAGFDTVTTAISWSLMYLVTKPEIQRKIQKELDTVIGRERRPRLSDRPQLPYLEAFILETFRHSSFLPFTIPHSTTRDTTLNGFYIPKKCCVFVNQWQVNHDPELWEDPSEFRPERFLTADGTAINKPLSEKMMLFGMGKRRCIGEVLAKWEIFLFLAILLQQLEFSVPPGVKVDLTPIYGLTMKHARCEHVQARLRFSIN
Procedure: as §7

[9] = Lmna^wt/G609G mice, injection started from 43 weeks old, FIG. 2E

Compound: CC1(C)Oc2cc3oc(=O)ccc3cc2C[C@@H]1OC/C=C/c1ccccc1 [SLC-D011, (7S)-(+)-8,8-dimethyl-7-(3-phenyl-allyloxy)-7,8-dihydro-6H-pyrano[3,2-g]chromen-2-one]
- stability in solution on heating and ultrasonic treatment [1]: stable without being decomposed even by heating and ultrasonic treatment
- Plasma stability (% remaining) Human 30 min (Plasma stability, human; 30 min): >100 % remaining
- Plasma stability (% remaining) Human 120 min (Plasma stability, human; 120 min): >100 % remaining
- water solubility (Water solubility): very low water solubility
- Plasma protein binding Rat (% Bound) (Plasma protein): 99.8 % Bound
- CYP inhibition CYP2C19 (CYP2C19): 28.8
- bioavailability ([2]; blood, oral, PK analysis, read-out: bioavailability (B.A.)): 66%
- PK profile ([2]; in vivo PK analysis): proper PK profile
- Plasma stability (% remaining) Rat 30 min (Plasma stability, rat; 30 min): 83.6 % remaining
- Plasma stability (% remaining) Rat 120 min (Plasma stability, rat; 120 min): 75.1 % remaining
- collagen expression in fibroblasts [3]: increasing collagen expression
- Liver microsomal stability (% remaining during 30 min) Human (%) [4]: 21.5%
- CYP inhibition CYP2D6 (CYP2D6): 91.7
- nuclear morphology of WS cells (WS cells; WS cells incubated 48 hr, FIG. 4F): improved nuclear morphology
- H3K9me3 expression in WS cells (WS cells; WS cells incubated 48 hr, FIG. 4G): induced expression of H3K9me3
- cell proliferation of WS cells (WS cells; WS patient cells, FIG. 4F): improved nuclear morphology and cell proliferation
- Liver microsomal stability (% remaining during 30 min) Rat (%) [5]: 17.4%
- progerin expression [6]: inhibiting progerin expression; also recorded: obviously suppresses progerin expression
- lifespan extended from 45 to (Lmna^wt/G609G mice; Lamn^wt/G609G model): 64 weeks
- average life span (Lmna^wt/G609G mice; [9]): 65 weeks
- maximum (max) life span (Lmna^wt/G609G mice; [9]): 66 weeks
- morphology such as hair condition and body size (Lmna^wt/G609G mice; Lmna^wt/G609G mouse, FIG. 2F): greatly improved
- nuclear abnormality of HGPS cells (HGPS cells; HGPS cells incubated 48 hr, FIG. 1E): improved nuclear abnormality of HGPS cells
- progerin expression in HGPS cells (HGPS cells; HGPS cells incubated 48 hr, progerin staining, FIG. 1E): reduces progerin expression
- H3K9me3 expression in HGPS cells (HGPS cells; immunostaining, FIG. 1F): induced H3K9me3 expression
- collagen expression in keratinocytes [7]: increasing collagen expression
- Liver microsomal stability (% remaining during 30 min) Mouse (%) [8]: 59.7%
- CYP inhibition CYP2C9 (CYP2C9): 78.4
- hERG ion channel inhibition (hERG ion channel): severe hERG inhibition was not observed
- CYP inhibition CYP1A2 (CYP1A2): 81.6
